Laboratory results reported in article PMC10693528, “A high-throughput metabolomics in vitro platform for the characterization of hepatotoxicity” (Cell Biology and Toxicology, 2023).

Tested on: HepG2 cells
Test: LC-MS/MS targeted intracellular metabolomics
Format: cell-based, human
Conditions: Suppl Fig 11, C3, 48 h
Procedure: Metabolite profiling of cells was performed directly in the same 96-well plate according to a standardized protocol described below. In order to prevent any interaction with the cell material, the automatic sampler was adjusted to pick up the sample from the supernatant at a specified depth avoiding the contact with the bottom of the plate.
After the initial quenching step (50 μL isopropanol 80%), additional 70 μL of isopropanol 80%, containing internal standards (methionine-D3, tryptophan-D5, arginine-13C6-15N4, Boc-Ala-Gly-Gly-Gly-OH, coenzyme Q1, coenzyme Q2, coenzyme Q4) were added to each well. The internal standards were used for quality control by visual inspection (signal intensity, peak shape, retention time); they were not used for normalization. Afterwards, plates were shaken for 5 min, 750 rpm at 20 °C, and placed for 30 s in the ultrasonic device. Then, the plates were centrifugated for 10 min, at 5485 g, 15 °C. Further, 2.5 μL of the extract were injected each for reversed-phase and hydrophilic interaction liquid chromatography followed by MS/MS detection (AB Sciex QTrap 6500+) using the positive and negative ionization mode. For reverse-phase high-performance liquid chromatography (RP-HPLC, Ascentis Express C18, 5 cm × 2.1 mm, 2.7 μm Supelco), gradient elution was performed with mobile phase A, water/methanol/0.1 M ammonium formate (1:1:0.02, w/w), and B, methyl-tert-butylether/2-propanol/methanol/0.1 M ammonium formate/formic acid (4:2:1:0.07:0.035, w/w) 5.9 min linear gradient: 0 min 100% A, 0.5 min 75% A, 5.9 min 10% A; followed by 0% A until 6.7 min; re-equilibration at 100% A until 7.7 min; flow rate 600 μL/min; column temperature 40 °C HILIC (ZIC-HILIC, 2.1 × 100 mm, 3.5 μm, Supelco) gradient elution was performed with mobile phase C, acetonitrile/water (99:1, v/v) with 0.2% (v) acetic acid, and D, 7 mM ammonium acetate with 0.2% (v) acetic acid (5.0 min linear gradient: 0 min 100% C, 5 min 10% C; followed by a linear gradient back to 100%C until 6.5 min; re-equilibration at 100% C until 7.5 min; flow rate 600 μL/min; column temperature 40 °C.). Two LC-MS systems with identical configuration were used for the analysis. Normalization to lyophilized reference samples (see below) was used to compensate for variation from between analytical batches. The efficiency of this normalization procedure was checked by principal component analysis (PCA), confirming that Pool samples from different analytical batches clustered together.
Reference samples derived from lyophilized untreated HepG2 cells (technical control samples) were measured in parallel throughout the entire analytical process. Data were normalized against the median of these lyophilized HepG2 cells reference samples, to give normalized ratios (performed for each sample per metabolite). This compensated for inter- and intra-instrumental variation. To correct for small differences in cell numbers within and between different treatment groups, data were also normalized to the within sample median, as described in detail by (Ramirez et al. [2018]). For intracellular metabolomic analysis, the median of each sample was calculated across all the 221 measured metabolites.
To generate metabolic profiles for the different treatments, heteroscedastic t test (Welch test) was applied to log-transformed normalized metabolite data to compare treated groups with their respective controls.
Principal component analysis (PCA) and hierarchical clustering (HCA) analyses were performed using R software environment (https://www.r-project.org/). PCA was conducted using the ropls package (Thévenot et al. [2015]) with log10-transformed input data and standard scaling. HCA was performed using the pvclust package (Suzuki et al. [2019]), (https://CRAN.R-project.org/package=pvclust). Input: log10(Ratio), clustering method: Ward D2, distance method: Manhattan, bootstrapping: 10000 times.

## CC(=O)N1CCN(c2ccc(OCC3COC(Cn4ccnc4)(c4ccc(Cl)cc4Cl)O3)cc2)CC1 (centres unmarked) [Ketoconazole]
  2'-Deoxycytidine level vs controls: 0.76
  5-Hydroxytryptophan level vs controls: 0.87
  Carnitine level vs controls: 0.77
  Ceramide (d16:1.C24:0) level vs controls: 0.48
  Ceramide (d17:1.C24:0) level vs controls: 0.40
  Ceramide (d18:1.C16:0) level vs controls: 0.74
  Ceramide (d18:1.C18:0) level vs controls: 0.58
  Ceramide (d18:1.C20:0) level vs controls: 0.38
  Ceramide (d18:1.C21:0) level vs controls: 0.64
  Ceramide (d18:1.C22:0) level vs controls: 0.54
  Ceramide (d18:1.C23:0) level vs controls: 0.50
  Ceramide (d18:1.C24:0) level vs controls: 0.60
  Ceramide (d18:1.C24:1) level vs controls: 0.70
  Ceramide (d18:2.C16:0) level vs controls: 0.55
  Ceramide (d18:2.C18:0) level vs controls: 0.38
  Ceramide (d18:2.C22:0) level vs controls: 0.39
  Ceramide (d18:2.C23:0) level vs controls: 0.49
  Ceramide (d18:2.C24:0) level vs controls: 0.48
  Ceramide (d18:2.C24:1) level vs controls: 0.66
  Ceramide (d18:2.C24:2) level vs controls: 0.36
  Cholesterylester (C20:2) level vs controls: 0.58
  Choline plasmalogen (C36:4) level vs controls: 1.23
  Choline plasmalogen (C36:5) level vs controls: 1.44
  Coenzyme Q10 level vs controls: 0.65
  Glutamate level vs controls: 0.92
  Glutathione (GSH) level vs controls: 0.90
  Hexadecanoylcarnitine level vs controls: 1.97
  Hexadecenoylcarnitine level vs controls: 3.61
  Isopentenyl pyrophosphate (IPP) level vs controls: 0.50
  Lysophosphatidylcholine (C14:0) level vs controls: 1.21
  Lysophosphatidylcholine (C16:0) level vs controls: 1.96
  Lysophosphatidylcholine (C16:1) level vs controls: 2.67
  Lysophosphatidylcholine (C20:0) level vs controls: 1.34
  Lysophosphatidylcholine (C20:1) level vs controls: 1.07
  Lysophosphatidylcholine (C20:4) level vs controls: 6.43
  Lysophosphatidylcholine (C22:0) level vs controls: 1.53
  Lysophosphatidylcholine (C24:1) level vs controls: 2.21
  Lysophosphatidylethanolamine (C16:0) level vs controls: 0.82
  Lysophosphatidylethanolamine (C18:0) level vs controls: 1.22
  Lysophosphatidylethanolamine (C20:4) level vs controls: 4.71
  Lysophosphatidylethanolamine (C22:6) level vs controls: 4.79
  N-Acetylaspartate level vs controls: 0.69
  N-Acetylserine level vs controls: 0.84
  Octadecenoylcarnitine level vs controls: 3.35
  Pantothenic acid level vs controls: 0.85
  Phosphatidylcholine (C32:0) level vs controls: 0.81
  Phosphatidylcholine (C34:0) level vs controls: 0.81
  Phosphatidylcholine (C34:1) level vs controls: 0.79
  Phosphatidylcholine (C34:2) level vs controls: 0.89
  Phosphatidylcholine (C34:3) level vs controls: 1.19
  Phosphatidylcholine (C36:1) level vs controls: 0.77
  Phosphatidylcholine (C36:2) level vs controls: 0.64
  Phosphatidylcholine (C36:3) level vs controls: 0.89
  Phosphatidylcholine (C36:4) level vs controls: 0.67
  Phosphatidylcholine (C36:5) level vs controls: 0.66
  Phosphatidylcholine (C38:4) level vs controls: 1.06
  Phosphatidylcholine (C38:6) level vs controls: 0.74
  Phosphatidylcholine (C40:6) level vs controls: 1.10
  Phosphatidylcholine (C40:7) level vs controls: 1.16
  Phosphatidylcholine (C40:8) level vs controls: 1.11
  Phosphatidylethanolamine (C32:0) level vs controls: 0.86
  Phosphatidylethanolamine (C34:0) level vs controls: 0.73
  Phosphatidylethanolamine (C34:1) level vs controls: 0.82
  Phosphatidylethanolamine (C36:0) level vs controls: 0.70
  Phosphatidylethanolamine (C36:1) level vs controls: 0.78
  Phosphatidylethanolamine (C36:2) level vs controls: 0.93
  Phosphatidylethanolamine (C36:4) level vs controls: 0.96
  Phosphatidylethanolamine (C38:3) level vs controls: 0.90
  Phosphatidylethanolamine (C38:4) level vs controls: 1.10
  Phosphatidylethanolamine (C38:5) level vs controls: 1.10
  Phosphatidylethanolamine (C38:6) level vs controls: 0.86
  Phosphatidylethanolamine (C40:7) level vs controls: 1.09
  Phosphocholine level vs controls: 0.82
  Pipecolic acid level vs controls: 0.86
  Proline level vs controls: 0.79
  Pyridoxal level vs controls: 0.82
  S-Adenosylhomocysteine level vs controls: 0.69
  Sphingomyelin (d32:1) level vs controls: 1.49
  Sphingomyelin (d32:2) level vs controls: 1.28
  Sphingomyelin (d33:1) level vs controls: 1.18
  Sphingomyelin (d34:0) level vs controls: 2.87
  Sphingomyelin (d34:2) level vs controls: 1.31
  Sphingomyelin (d35:1) level vs controls: 1.86
  Sphingomyelin (d35:2) level vs controls: 1.71
  Sphingomyelin (d36:1) level vs controls: 1.62
  Sphingomyelin (d36:2) level vs controls: 1.45
  Sphingomyelin (d36:3) level vs controls: 1.48
  Sphingomyelin (d37:1) level vs controls: 1.49
  Sphingomyelin (d38:1) level vs controls: 1.42
  Sphingomyelin (d38:2) level vs controls: 1.21
  Sphingomyelin (d39:1) level vs controls: 1.79
  Sphingomyelin (d40:1) level vs controls: 1.85
  Sphingomyelin (d40:2) level vs controls: 1.67
  Sphingomyelin (d41:1) level vs controls: 1.75
  Sphingomyelin (d41:2) level vs controls: 1.88
  Sphingomyelin (d42:1) level vs controls: 1.54
  Sphingomyelin (d42:2) level vs controls: 1.83
  Taurine level vs controls: 1.32
  Tetradecanoylcarnitine level vs controls: 2.20
  Threonine level vs controls: 0.85
  Triacylglycerol (C30:0.C18:1) level vs controls: 0.61
  Triacylglycerol (C32:0.C16:0) level vs controls: 0.23
  Triacylglycerol (C32:0.C16:1) level vs controls: 0.51
  Triacylglycerol (C34:0.C16:0) level vs controls: 0.16
  Triacylglycerol (C34:0.C17:0) level vs controls: 0.34
  Triacylglycerol (C34:0.C18:0) level vs controls: 0.14
  Triacylglycerol (C34:0.C18:1) level vs controls: 0.31
  Triacylglycerol (C34:1.C16:0) level vs controls: 0.44
  Triacylglycerol (C34:1.C18:1) level vs controls: 0.83
  Triacylglycerol (C34:1.C18:3) level vs controls: 1.33
  Triacylglycerol (C34:2.C18:0) level vs controls: 0.68
  Triacylglycerol (C34:2.C18:1) level vs controls: 1.31
  Triacylglycerol (C36:1.C18:0) level vs controls: 0.27
  Triacylglycerol (C36:1.C18:1) level vs controls: 0.61
  Triacylglycerol (C36:2.C18:1) level vs controls: 1.14
  Triacylglycerol (C36:3.C18:1) level vs controls: 1.57
  Triacylglycerol (C36:3.C18:2) level vs controls: 2.03
  Triacylglycerol (C36:4.C16:0) level vs controls: 1.15
  Triacylglycerol (C36:4.C18:0) level vs controls: 1.19
  myo-Inositol-2-phosphate level vs controls: 0.50
First of two lines with this name
  Sphingomyelin (d34:1) level vs controls: 1.40
Second of two lines with this name
  Sphingomyelin (d34:1) level vs controls: 1.16
